Experimental data from ChEMBL document CHEMBL3232931 (J Med Chem, 2014).
pEC50, pIC50: −log10 of the molar value. Activity calls are given as the source filed them. The rule behind the calls is not given here.

Experiments:
[1] = (§1) Inhibition of SARS coronavirus papain-like protease (amino acids 1541 to 1855) expressed in Escherichia coli BL21 (DE3) cells assessed as decrease in AMC release using Z-RLRGG-AMC as substrate by multimode plate reader analysis; set-up: species or system Severe acute respiratory syndrome-related coronavirus
[2] = Cytotoxicity against african green monkey Vero E6 cells assessed as cell viability after 48 hrs by Cell Titer-Glo luminescent assay; assay type: cell-based; settings: chlorocebus sabaeus
SARS-CoV = test: Antiviral activity against SARS coronavirus infected in african green monkey Vero E6 cells assessed as cell viability after 48 hrs by Cell Titer-Glo luminescent assay; assay type: functional, organism-based; settings: Severe acute respiratory syndrome-related coronavirus
BL21-DE3 [3] = test: Inhibition of SARS coronavirus papain-like protease (amino acids 1541 to 1855) expressed in Escherichia coli BL21 (DE3) cells assessed as decrease in AMC release using Z-RLRGG-AMC as substrate by serum shift assay based multimode plate reader analysis in presence of 5 to 20% human serum albumin; settings: Severe acute respiratory syndrome-related coronavirus
Replicase polyprotein 1a = Replicase polyprotein 1a (Human coronavirus NL63, UniProt P0C6U6); test: (§2) Inhibition of human coronavirus NL63 PLP2 (amino acids 1565 to 1894) expressed in Escherichia coli BL21 (DE3) cells assessed as reduction of AMC release using Z-RLRGG-AMC as substrate by multimode plate reader analysis
[4] = target: Replicase polyprotein 1a (Human coronavirus NL63) (UniProt P0C6U6); test: as §2
[5] = target: Replicase polyprotein 1a (Human coronavirus NL63) (UniProt P0C6U6); test: Inhibition of human coronavirus NL63 PLP2 (amino acids 1565 to 1894) expressed in Escherichia coli BL21 (DE3) cells assessed as reduction of AMC release using Z-RLRGG-AMC as substrate at 100 uM by multimode plate reader analysis
Target sequence in this assay (P0C6U6 whole entry, the tested form may be a part): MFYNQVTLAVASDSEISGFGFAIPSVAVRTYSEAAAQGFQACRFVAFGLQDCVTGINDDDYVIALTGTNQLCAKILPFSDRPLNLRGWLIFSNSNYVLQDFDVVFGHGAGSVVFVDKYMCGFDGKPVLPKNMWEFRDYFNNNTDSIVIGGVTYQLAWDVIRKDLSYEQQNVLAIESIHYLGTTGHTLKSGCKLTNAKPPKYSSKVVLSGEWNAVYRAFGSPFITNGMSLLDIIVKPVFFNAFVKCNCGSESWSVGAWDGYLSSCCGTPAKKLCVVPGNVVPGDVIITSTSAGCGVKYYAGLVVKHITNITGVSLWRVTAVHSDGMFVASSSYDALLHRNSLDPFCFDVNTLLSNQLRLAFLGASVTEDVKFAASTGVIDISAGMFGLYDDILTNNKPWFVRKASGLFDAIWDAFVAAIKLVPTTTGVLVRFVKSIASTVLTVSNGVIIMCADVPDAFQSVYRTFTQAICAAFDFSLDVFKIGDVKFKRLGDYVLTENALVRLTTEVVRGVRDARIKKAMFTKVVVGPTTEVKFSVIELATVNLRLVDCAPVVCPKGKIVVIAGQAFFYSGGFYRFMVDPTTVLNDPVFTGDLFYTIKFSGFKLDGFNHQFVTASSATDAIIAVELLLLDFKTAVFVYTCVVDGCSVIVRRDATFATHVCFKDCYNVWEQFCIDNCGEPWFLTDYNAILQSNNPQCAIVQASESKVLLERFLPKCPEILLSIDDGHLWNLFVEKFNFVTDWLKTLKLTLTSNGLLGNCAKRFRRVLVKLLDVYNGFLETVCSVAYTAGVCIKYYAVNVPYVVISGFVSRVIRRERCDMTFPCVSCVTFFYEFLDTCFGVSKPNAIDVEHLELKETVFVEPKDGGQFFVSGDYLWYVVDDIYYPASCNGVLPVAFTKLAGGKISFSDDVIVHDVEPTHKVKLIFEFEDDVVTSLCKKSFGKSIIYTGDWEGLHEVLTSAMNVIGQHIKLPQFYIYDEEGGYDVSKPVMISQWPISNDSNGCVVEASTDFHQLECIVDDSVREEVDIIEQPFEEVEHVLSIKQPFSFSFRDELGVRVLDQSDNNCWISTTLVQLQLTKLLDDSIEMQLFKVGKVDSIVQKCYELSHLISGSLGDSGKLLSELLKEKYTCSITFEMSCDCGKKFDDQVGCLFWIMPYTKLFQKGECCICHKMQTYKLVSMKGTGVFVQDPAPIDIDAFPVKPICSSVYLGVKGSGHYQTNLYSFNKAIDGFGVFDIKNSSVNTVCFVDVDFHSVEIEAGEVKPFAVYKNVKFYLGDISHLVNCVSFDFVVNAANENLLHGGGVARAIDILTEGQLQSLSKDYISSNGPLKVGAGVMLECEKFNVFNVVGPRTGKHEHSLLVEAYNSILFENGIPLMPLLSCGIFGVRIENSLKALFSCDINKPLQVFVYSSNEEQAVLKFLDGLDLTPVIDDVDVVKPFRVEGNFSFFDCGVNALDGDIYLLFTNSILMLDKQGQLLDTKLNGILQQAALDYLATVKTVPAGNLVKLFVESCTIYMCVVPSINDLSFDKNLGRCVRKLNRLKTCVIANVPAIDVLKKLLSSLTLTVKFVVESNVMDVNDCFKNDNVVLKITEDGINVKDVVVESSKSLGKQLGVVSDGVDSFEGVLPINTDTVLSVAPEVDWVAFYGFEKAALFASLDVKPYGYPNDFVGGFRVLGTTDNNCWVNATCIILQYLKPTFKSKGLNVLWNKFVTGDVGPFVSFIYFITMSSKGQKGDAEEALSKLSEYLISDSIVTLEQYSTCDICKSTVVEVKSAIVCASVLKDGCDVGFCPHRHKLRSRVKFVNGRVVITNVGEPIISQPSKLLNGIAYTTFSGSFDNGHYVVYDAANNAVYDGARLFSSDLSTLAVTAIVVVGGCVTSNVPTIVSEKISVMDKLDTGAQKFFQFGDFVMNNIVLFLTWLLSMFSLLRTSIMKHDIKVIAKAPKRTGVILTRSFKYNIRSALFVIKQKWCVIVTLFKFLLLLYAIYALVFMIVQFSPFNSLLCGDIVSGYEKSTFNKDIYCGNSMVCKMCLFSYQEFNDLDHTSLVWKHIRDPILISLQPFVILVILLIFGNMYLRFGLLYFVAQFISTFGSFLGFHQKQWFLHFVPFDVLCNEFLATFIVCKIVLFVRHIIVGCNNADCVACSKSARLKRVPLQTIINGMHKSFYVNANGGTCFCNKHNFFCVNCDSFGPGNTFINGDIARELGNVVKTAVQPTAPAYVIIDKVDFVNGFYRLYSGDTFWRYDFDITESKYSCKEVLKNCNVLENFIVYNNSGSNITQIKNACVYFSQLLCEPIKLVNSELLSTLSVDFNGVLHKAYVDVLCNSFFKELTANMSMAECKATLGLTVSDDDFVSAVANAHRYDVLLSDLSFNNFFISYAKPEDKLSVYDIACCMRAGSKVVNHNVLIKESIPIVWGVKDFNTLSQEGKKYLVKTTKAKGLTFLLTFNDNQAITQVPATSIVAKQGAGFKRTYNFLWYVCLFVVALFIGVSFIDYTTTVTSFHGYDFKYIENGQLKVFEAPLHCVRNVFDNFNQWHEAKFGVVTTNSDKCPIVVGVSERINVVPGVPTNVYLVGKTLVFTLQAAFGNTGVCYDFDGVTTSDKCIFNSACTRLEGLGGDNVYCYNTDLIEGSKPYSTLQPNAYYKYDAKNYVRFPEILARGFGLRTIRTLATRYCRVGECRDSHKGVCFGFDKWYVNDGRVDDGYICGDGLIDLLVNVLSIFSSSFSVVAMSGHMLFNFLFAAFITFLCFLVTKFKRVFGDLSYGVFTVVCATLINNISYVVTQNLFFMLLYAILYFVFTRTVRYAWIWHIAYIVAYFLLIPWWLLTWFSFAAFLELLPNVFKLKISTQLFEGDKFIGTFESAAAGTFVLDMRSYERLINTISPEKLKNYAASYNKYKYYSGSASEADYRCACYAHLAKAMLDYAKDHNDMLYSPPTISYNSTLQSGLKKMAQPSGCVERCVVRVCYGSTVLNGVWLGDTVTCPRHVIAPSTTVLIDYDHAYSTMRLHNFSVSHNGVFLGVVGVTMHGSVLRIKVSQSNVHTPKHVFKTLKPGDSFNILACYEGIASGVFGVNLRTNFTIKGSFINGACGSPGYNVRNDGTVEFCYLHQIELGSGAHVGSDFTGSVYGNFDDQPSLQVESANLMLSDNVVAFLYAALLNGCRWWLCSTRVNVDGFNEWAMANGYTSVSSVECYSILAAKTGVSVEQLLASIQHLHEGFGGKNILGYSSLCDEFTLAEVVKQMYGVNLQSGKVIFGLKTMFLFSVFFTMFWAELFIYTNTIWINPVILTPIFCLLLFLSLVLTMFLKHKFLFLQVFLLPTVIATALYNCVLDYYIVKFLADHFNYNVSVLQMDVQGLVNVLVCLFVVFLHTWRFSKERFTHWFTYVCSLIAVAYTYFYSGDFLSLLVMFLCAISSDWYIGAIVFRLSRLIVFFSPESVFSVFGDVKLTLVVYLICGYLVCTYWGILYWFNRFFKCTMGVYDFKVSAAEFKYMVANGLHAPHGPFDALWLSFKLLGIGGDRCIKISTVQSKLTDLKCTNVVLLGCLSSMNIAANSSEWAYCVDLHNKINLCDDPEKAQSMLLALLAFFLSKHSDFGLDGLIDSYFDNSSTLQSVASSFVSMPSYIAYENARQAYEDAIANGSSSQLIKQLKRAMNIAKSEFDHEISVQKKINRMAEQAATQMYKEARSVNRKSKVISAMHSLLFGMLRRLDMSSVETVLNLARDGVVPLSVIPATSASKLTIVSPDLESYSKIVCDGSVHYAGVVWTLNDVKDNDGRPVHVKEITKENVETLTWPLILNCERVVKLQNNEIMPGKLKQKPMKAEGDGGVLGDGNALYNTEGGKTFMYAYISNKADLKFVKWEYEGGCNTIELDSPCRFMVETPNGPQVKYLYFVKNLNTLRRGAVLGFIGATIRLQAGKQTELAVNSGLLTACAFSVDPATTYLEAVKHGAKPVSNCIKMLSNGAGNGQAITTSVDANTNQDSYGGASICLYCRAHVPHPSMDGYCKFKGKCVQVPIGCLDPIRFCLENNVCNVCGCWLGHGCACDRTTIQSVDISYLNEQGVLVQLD

BL21-DE3 [6] = test: as §1; settings: Severe acute respiratory syndrome-related coronavirus
Liver = test: Half life in mouse liver microsomes at 1 uM; assay type: ADME
HEK293 = test: Cytotoxicity against human HEK293 cells assessed as cell viability after 48 hrs by Cell Titer-Glo luminescent assay; assay type: cell-based; settings: hek293, 48 h
[7] = Metabolic stability in mouse liver microsomes assessed as parent compound remaining at 1 uM after 15 mins; assay type: ADME; settings: read-out: Stability
[8] = Therapeutic index, ratio of CC50 for african green monkey Vero E6 cells to EC50 for SARS coronavirus infected in african green monkey Vero E6 cells; assay type: cell-based; settings: read-out: Ratio CC50/EC50

| SMILES | pIC50 [1] | other results |
| --- | --- | --- |
| CCC(c1cccc2ccccc12)N1CCC(C(=O)NCc2ccc3c(c2)OCO3)CC1 (racemic) | 4.76 |  |
| COc1cc(CNC(=O)C2CCN([C@H](C)c3cccc4ccccc34)CC2)ccn1 | 6.46 | CC50 [2]: > 100 µM; pEC50 (SARS-CoV): 5.02; inhibition (BL21-DE3 [3]): Active; pIC50 (Replicase polyprotein 1a): 4.23; Imax [4]: 67%; inhibition [5]: > 30%; Imax (BL21-DE3 [6]): 100%; t1/2 (Liver): 8 min; CC50 (HEK293): > 100 µM; remaining at 0.25 h, 1 µM [7]: 30% |
| O=C(NCc1cccc(F)c1)C1CCN(C2CCCc3ccc4ccccc4c32)CC1 (stereo not drawn) | 5.29 |  |
| COC[C@@H](NC(=O)C1CCN([C@H](C)c2cccc3ccccc23)CC1)c1ccccc1 | 5.72 | CC50 [2]: > 100 µM; pEC50 (SARS-CoV): 4.93; inhibition (BL21-DE3 [3]): Active; CC50 (HEK293): > 100 µM; selectivity ratio [8]: > 8.5 |
| C[C@H](NC(=O)C1CCN([C@H](C)c2cccc3ccccc23)CC1)c1ccccc1 | 4.90 |  |
| CC(c1cccc2cccnc12)N1CCC(C(=O)NCc2cccc(F)c2)CC1 (racemic) | 5.15 | pEC50 (SARS-CoV): < 4.30 |
| COC[C@H](NC(=O)C1CCN([C@H](C)c2cccc3ccccc23)CC1)c1ccccc1 | 4.74 |  |
| C[C@H](c1cccc2ccccc12)N1CCC(C(=O)NCc2cccnc2)CC1 | 4.58 |  |
| CC(c1nccc2ccccc12)N1CCC(C(=O)NCc2cccc(F)c2)CC1 (racemic) | 4.51 |  |
| CC(=O)Nc1ccc(CNC(=O)C2CCN([C@H](C)c3cccc4ccccc34)CC2)cc1 | 5.24 | pIC50 (Replicase polyprotein 1a): 4.43; Imax [4]: 42%; inhibition [5]: > 30%; Imax (BL21-DE3 [6]): 94% |
| C[C@H](c1cccc2ccccc12)N1CCC(C(=O)NCCc2ccc(Cl)cc2)CC1 | 5.80 |  |
| CC(c1cccc2ncccc12)N1CCC(C(=O)NCc2cccc(F)c2)CC1 (racemic) | 5.35 |  |
| CC(=O)NCc1cccc(CNC(=O)C2CCN([C@H](C)c3cccc4ccccc34)CC2)c1 | 4.69 |  |
| C[C@H](c1cccc2ccccc12)N1CCC(C(=O)NCc2ccccc2)CC1 | 5.66 | pEC50 (SARS-CoV): < 4.30 |
| C[C@H](c1cccc2ccccc12)N1CCC(C(=O)NCc2ccc(Cl)cc2)CC1 | 6.24 |  |
| O=C(NCc1ccc2c(c1)OCO2)C1CCN(C(CO)c2cccc3ccccc23)CC1 (racemic) | 4.49 |  |
| O=C(NCc1ccc2c(c1)OCO2)C1CCN(C(Cc2ccccc2)c2cccc3ccccc23)CC1 (racemic) | < 4.00 |  |
| C[C@H](c1cccc2ccccc12)N1CCC(C(=O)N[C@H](C)c2ccccc2)CC1 | 4.87 |  |
| C[C@H](c1cccc2ccccc12)N1CCC(C(=O)NCc2ccncc2)CC1 | 4.74 |  |
| COCC(c1cccc2ccccc12)N1CCC(C(=O)NCc2ccc3c(c2)OCO3)CC1 (racemic) | < 4.00 |  |
| C[C@H](c1cccc2ccccc12)N1CCC(C(=O)NCc2ccc(F)c(F)c2)CC1 | 4.53 | pIC50 (Replicase polyprotein 1a): 4.36; Imax [4]: 48%; inhibition [5]: > 30%; Imax (BL21-DE3 [6]): 78% |
| CNC(=O)c1ccc(CNC(=O)C2CCN([C@H](C)c3cccc4ccccc34)CC2)cc1 | 6.22 |  |
| CNC(=O)c1cccc(CNC(=O)C2CCN([C@H](C)c3cccc4ccccc34)CC2)c1 | 6.20 |  |
| CC(c1cccc2cnccc12)N1CCC(C(=O)NCc2cccc(F)c2)CC1 (racemic) | 5.17 | pEC50 (SARS-CoV): < 4.30 |
| CCc1ccc(CNC(=O)C2CCN([C@H](C)c3cccc4ccccc34)CC2)cc1 | 6.33 |  |
| C[C@H](c1cccc2ccccc12)N1CCC(C(=O)NCc2cccc(Cl)c2)CC1 | 4.57 |  |
| C[C@H](c1cccc2ccccc12)N1CCC(C(=O)NCCc2cccc(F)c2)CC1 | 5.72 |  |
